Consider eight molecules from patent US12655145B2, “P2X3 modulators” (GlaxoSmithKline Intellectual Property (No. 3) Limited, priority 2020, dated 2026).

Each structure is given as a SMILES string.

One test has as its target T1, P2X3 (Homo sapiens, UniProt P56373).
T1 construct: expressed in transfected cells; host or cells: HEK293
T1 sequence (P56373 1-397): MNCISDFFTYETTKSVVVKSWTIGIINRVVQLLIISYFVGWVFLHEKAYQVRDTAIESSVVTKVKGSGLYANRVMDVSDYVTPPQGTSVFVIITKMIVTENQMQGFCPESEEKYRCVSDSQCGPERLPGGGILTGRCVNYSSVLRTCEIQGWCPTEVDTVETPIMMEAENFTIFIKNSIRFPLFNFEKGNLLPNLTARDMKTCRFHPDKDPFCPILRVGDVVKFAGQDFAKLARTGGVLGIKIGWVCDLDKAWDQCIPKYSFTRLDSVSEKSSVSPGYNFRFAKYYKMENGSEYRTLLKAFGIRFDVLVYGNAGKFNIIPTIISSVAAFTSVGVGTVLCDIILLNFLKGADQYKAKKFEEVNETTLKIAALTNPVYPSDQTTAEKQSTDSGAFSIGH
The experiment in a line: P2X3 Antagonist Assay (FLIPR calcium, Fluo-8, HEK293 cells transfected with human ion channel cDNAs, αβ-meATP stimulation). The class given is cell-based. Particulars: HEK293, @ 1 μM, antagonist mode, αβ-meATP 3 μM, read-out: P2X3 IC50 column, given as % @ 1 μM.
As to `CNC(=O)c1cc(F)c(-c2nc3cc(C)ccn3c2CC2CCC(NC(C)=O)CC2)c(F)c1` (stereo not drawn) [cis-A21, 4-(3-((4-acetamidocyclohexyl)methyl)-7-methylimidazo[1,2-a]pyridin-2-yl)-3,5-difluoro-N-methylbenzamide], the inhibition at 1 µM is 20%.

Staying with this test, now noted: antagonist mode, αβ-meATP 3 μM.
As for `COC(=O)N1CCO[C@@H](Cc2c(-c3ccc(C(=O)N4CCCC4)cc3F)nc3cc(Cl)ccn23)C1` [Compound A67, methyl (S)-2-((7-chloro-2-(2-fluoro-4-(pyrrolidine-1-carbonyl)-phenyl)imidazo[1,2-a]pyridin-3-yl)methyl)morpholine-4-carboxylate], the half-inhibitory concentration (IC50) (usually the concentration at which inhibition is half-maximal) lay in the range of 100 to 1000 nM.

Take `COC(=O)N1CCO[C@@H](Cc2c(-c3ccc(C(=O)N4CC[C@H](O)C4)cc3F)nc3cc(Cl)ccn23)C1` [Compound A68, methyl (S)-2-((7-chloro-2-(2-fluoro-4-((S)-3-hydroxypyrrolidine-1-carbonyl)phenyl)imidazo[1,2-a]pyridin-3-yl)methyl)morpholine-4-carboxylate]: the IC50 is 100 to 1000 nM.

Consider `COC(=O)N1CCO[C@@H](Cc2c(-c3ccc(C(=O)N4CC[C@@H](O)C4)cc3F)nc3cc(Cl)ccn23)C1` [Compound A69, methyl (S)-2-((7-chloro-2-(2-fluoro-4-((R)-3-hydroxypyrrolidine-1-carbonyl)phenyl)imidazo[1,2-a]pyridin-3-yl)methyl)morpholine-4-carboxylate], for which the IC50 is more than 1000 nM.

As to `COCCNC(=O)c1ccc(-c2nc3cc(Cl)ccn3c2C[C@H]2CN(C(=O)OC)CCO2)c(F)c1` [Compound A73, methyl (S)-2-((7-chloro-2-(2-fluoro-4-((2-methoxyethyl)carbamoyl)phenyl)imidazo[1,2-a]pyridin-3-yl)methyl)morpholine-4-carboxylate], the half-maximal inhibitory concentration (IC50) was more than 1000 nM.

On to `CNC(=O)c1ccc(-c2nc3cc(Cl)ccn3c2C[C@H]2CN(C(C)=O)CCO2)c(F)c1` [Compound A88, (S)-4-(3-((4-acetylmorpholin-2-yl)methyl)-7-chloroimidazo[1,2-a]pyridin-2-yl)-3-fluoro-N-methylbenzamide], for which the IC50 lay within 100 to 1000 nM.

`CCC(=O)N1CCO[C@@H](Cc2c(-c3ccc(C(=O)NC)cc3F)nc3cc(Cl)ccn23)C1` [Compound A89, (S)-4-(7-chloro-3-((4-propionylmorpholin-2-yl)methyl)imidazo-[1,2-a]pyridin-2-yl)-3-fluoro-N-methylbenzamide]: the IC50 fell in the range of 100 to 1000 nM.

With `CNC(=O)c1cc(F)c(-c2nc3cc(C)ccn3c2CC2CCC(NC(C)=O)CC2)c(F)c1` (stereo not drawn) [trans-A21, 4-(3-((4-acetamidocyclohexyl)methyl)-7-methylimidazo[1,2-a]pyridin-2-yl)-3,5-difluoro-N-methylbenzamide], the half-maximal inhibitory concentration (IC50) was more than 1000 nM.
